#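 Assay format: 96-well plates, 48-hour exposure. At the GI50, growth is halved. At the TGI there is no net growth.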
# Assays:
# Assay in all cases: growth of human tumour cells (NCI), 48 h
# [1] = test system: OVCAR-5 ovarian
# [2] = test system: SN12C renal
# [3] = test system: T-47D breast
# [4] = test system: DU-145 prostate
# [5] = test system: U251 CNS
# [6] = test system: UO-31 renal
# [7] = test system: NCI-H522 lung
# [8] = test system: SK-OV-3 ovarian
# [9] = test system: UACC-62 melanoma
# [10] = test system: PC-3 prostate
Structure (SMILES),TGI [1] [µM],TGI [2] [µM],TGI [3] [µM],TGI [4] [µM],TGI [5] [µM],TGI [6] [µM],TGI [7] [µM],TGI [8] [µM],TGI [9] [µM],TGI [10] [µM],GI50 [1] [µM],GI50 [2] [nM],GI50 [3] [nM],GI50 [4] [µM],GI50 [5] [nM],GI50 [6] [nM],GI50 [7] [nM],GI50 [8] [nM],GI50 [9] [µM],GI50 [10] [nM]
O=C(O)[C@H]1NC[C@@H]2ON=C(Br)[C@@H]21,> 100,> 100,> 100,> 100,> 100,> 100,> 100,> 100,> 100,> 100,–,–,–,–,–,–,–,–,–,–
COC(=O)Nc1nc2ccc(NS(=O)(=O)c3ccc(F)cc3)cc2[nH]1,> 100,> 100,> 100,> 100,> 100,> 100,7.68,> 100,> 100,> 100,–,–,–,–,–,–,–,–,–,–
Cc1cc2nc(NS(=O)(=O)c3cc(C)c(Cl)cc3S)[nH]c2cc1C,> 100,> 100,> 100,> 100,> 100,> 100,> 100,> 100,> 100,> 100,–,–,–,–,–,–,–,–,–,–
CCOC(=O)C1CCCC1S(=O)(=O)c1ccc(C)cc1 (stereo not given),> 100,> 100,> 100,> 100,> 100,> 100,> 100,> 100,> 100,> 100,–,–,–,–,–,–,–,–,–,–
COc1ccc(C2c3c(-c4ccccc4)nn(-c4ccccc4)c3Oc3ncn(N)c(=N)c32)cc1OC (stereo not given),13.5,8.45,4.48,8.78,> 100,3.84,4.15,21.6,3.72,4.08,–,–,–,–,–,–,–,–,–,–
CCC(=O)n1c(=O)n(-c2ccc([N+](=O)[O-])cc2)c(=O)n1C(=O)CC,> 100,> 100,> 100,> 100,> 100,> 100,> 100,> 100,> 100,> 100,–,–,–,–,–,–,–,–,–,–
CC1(C)C(C(=O)OC(C#N)c2cccc(OCC(=O)OCc3ccccc3)c2)C1(C)C (stereo not given),> 100,> 100,> 100,> 100,> 100,> 100,> 100,> 100,> 100,> 100,–,–,–,–,–,–,–,–,–,–
CCCCCCCCCCOC1C(C(C)OCCCN(C)C)OC2OC3(CCCCC3)OC21 (stereo not given),25.2,30.3,35.7,31.2,28.4,31.7,34,32.7,26.2,25.2,–,–,–,–,–,–,–,–,–,–
O=c1[nH]c2cc([N+](=O)[O-])c(N(CCO)CCO)c([N+](=O)[O-])c2[nH]1,> 100,> 100,80.5,> 100,> 100,> 100,> 100,89.7,72.1,> 100,–,–,–,–,–,–,–,–,–,–
O=C(O)C1C2CCC(C2)C1c1ccccc1 (stereo not given),> 100,> 100,> 100,> 100,> 100,> 100,> 100,> 100,> 100,> 100,–,–,–,–,–,–,–,–,–,–
Nc1nc(SCc2ccccc2[N+](=O)[O-])c2[nH]cnc2n1,> 100,> 100,74.1,> 100,> 100,> 100,> 67.5,> 100,> 100,> 100,–,–,–,–,–,–,–,–,–,–
COc1cc(C(c2cc(OC)c(OC)c(OC)c2)N2C(=O)CCC2C(=O)O)cc(OC)c1OC (stereo not given),> 100,> 100,> 100,> 100,> 100,> 100,> 100,> 100,> 100,> 100,–,–,–,–,–,–,–,–,–,–
CCNC(=O)CCCCC(=O)c1c(C)[nH]c(/C=C2\N=C(c3ccc[nH]3)C=C2OC)c1C,20.6,6.16,6.43,11,4.5,4.51,5.48,5.76,19.3,5.8,6.01,2470,2680,3.01,1990,2030,2200,2590,6.11,1630
Nc1ccc(S(=O)(=O)c2ccc(N=[N+]([O-])c3ccc(S(=O)(=O)c4ccc(N)cc4)cc3)cc2)cc1,> 100,> 100,> 100,> 100,> 57.3,> 100,> 74,> 90.6,> 100,> 100,–,–,–,–,–,–,–,–,–,–
C[N+](C)(N)Cc1csc(-c2ccc(Cl)cc2)n1,> 100,> 100,> 100,> 100,> 100,> 100,> 100,> 100,> 100,> 100,–,–,–,–,–,–,–,–,–,–
COC(=O)C1(Cc2ccc3c(c2)CCC3)Cc2cc3c(cc2C1=O)CCC3 (stereo not given),> 46.4,> 46.4,> 46.4,> 46.4,> 46.4,> 46.4,> 31.6,> 46.4,> 46.4,> 46.4,–,–,–,–,–,–,–,–,–,–

# Source: PubChem BioAssay (NCI)
